US10954216B2, “BMP-signal-inhibiting compound” (RIKEN, priority 2016, dated 2021)
Read-outs that look alike come from different tables or passages of the source.

Legend:
[1] = tested on: BMP signal in MDA-231-D-BREFluc/Rluc cells; test: BMP signal inhibitory effect (AlphaScreen SureFire SMAD1 p-Ser463/465, BMP-6 stimulation); format: cell-based
How it was run: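 MDA-231-D-BREFluc/Rluc cells were pretreated with compound for 2 h at 37° C, then stimulated with BMP-6 for 30 min. SMAD1 p-Ser463/465 in lysates was measured by AlphaScreen SureFire.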

human ALK2 = human ALK2 (Homo sapiens (Human), UniProt Q04771); test: ALK2 enzyme inhibitory effect (33P-ATP kinase assay, Reaction Biology); format: biochemical; details: ALK2, 10 μM ATP, 20 μM casein
Chain of human ALK2 (Q04771 21-509): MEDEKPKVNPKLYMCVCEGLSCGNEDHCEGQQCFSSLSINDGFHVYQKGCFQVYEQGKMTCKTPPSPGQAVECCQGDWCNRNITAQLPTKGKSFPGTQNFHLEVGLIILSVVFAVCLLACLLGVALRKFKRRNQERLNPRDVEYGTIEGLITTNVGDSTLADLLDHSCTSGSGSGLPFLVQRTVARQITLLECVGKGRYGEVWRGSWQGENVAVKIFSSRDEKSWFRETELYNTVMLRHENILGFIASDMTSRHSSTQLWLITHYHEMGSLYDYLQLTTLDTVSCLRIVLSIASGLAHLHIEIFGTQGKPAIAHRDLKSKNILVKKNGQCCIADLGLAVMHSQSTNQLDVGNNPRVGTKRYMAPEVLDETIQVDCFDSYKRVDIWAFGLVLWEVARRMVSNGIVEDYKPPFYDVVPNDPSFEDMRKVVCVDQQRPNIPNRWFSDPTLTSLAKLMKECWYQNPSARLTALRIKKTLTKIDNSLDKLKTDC
Source text: (§1) ALK Enzyme Inhibitory Effect
(§2) Evaluation conditions were described in the following web pages. http://www.reactionbiology.corrilwebapps/site/Kinase_Assay_Protocol.aspx http://www.reactionbiology.corrilwebapps/site/KinaseDetail.aspx?page=Kinases&id=1

human ALK6 = human ALK6 (Homo sapiens (Human), UniProt O00238); test: ALK6 enzyme inhibitory effect (33P-ATP kinase assay, Reaction Biology); format: biochemical
Chain of human ALK6 (O00238 14-502): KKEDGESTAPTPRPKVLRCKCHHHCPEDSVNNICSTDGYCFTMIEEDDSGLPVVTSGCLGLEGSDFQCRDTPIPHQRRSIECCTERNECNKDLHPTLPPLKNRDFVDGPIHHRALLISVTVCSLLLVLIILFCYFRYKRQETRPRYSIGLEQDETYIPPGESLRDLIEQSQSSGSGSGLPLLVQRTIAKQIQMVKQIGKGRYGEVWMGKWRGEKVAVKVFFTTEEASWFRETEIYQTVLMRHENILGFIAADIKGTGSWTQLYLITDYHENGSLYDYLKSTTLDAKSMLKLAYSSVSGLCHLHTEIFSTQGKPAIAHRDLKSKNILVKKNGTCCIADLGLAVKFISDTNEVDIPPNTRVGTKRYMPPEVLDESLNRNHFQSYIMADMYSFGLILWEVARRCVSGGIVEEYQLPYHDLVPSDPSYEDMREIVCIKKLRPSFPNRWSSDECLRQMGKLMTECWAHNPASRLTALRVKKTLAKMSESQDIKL
Source text: as §1, §2

[2] = BMP-6 stimulated MDA-231-D-BREFluc/Rluc cells, phospho-SMAD1 AlphaScreen, read-out: IC50

Compound | IC50 [1, 2] [µM] | other results
CCn1cc(-c2ccnc(Nc3ccc(N4CCN(C(C)C)CC4)cc3)n2)c(-c2cccnc2)n1 [Example 16, 4-(1-ethyl-3-(pyridin-3-yl)-1H-pyrazol-4-yl)-N-(4-(4-isopropylpiperazin-1-yl)phenyl)pyrimidin-2-amine] | 0.0128 | IC50 (human ALK2): 0.0066 µM
c1cncc(-c2n[nH]cc2-c2ccnc(Nc3ccc(OCCN4CCOCC4)cc3)n2)c1 [Example 25, N-(4-(2-morpholinoethoxy)phenyl)-4-(3-(pyridin-3-yl)-1H-pyrazol-4-yl)pyrimidin-2-amine] | 0.0485 | inhibition at 0.37 µM (human ALK6; ALK6, test compound 370 nM (asterisk footnote), read-out: inhibition rate at 370 nM): 47.7%
CCn1cc(-c2ccc(Nc3nccc(-c4cn(CC)nc4-c4cccnc4)n3)cc2)cn1 [Example 27, N-(4-(1-ethyl-1H-pyrazol-4-yl)phenyl)-4-(1-ethyl-3-(pyridin-3-yl)-1H-pyrazol-4-yl)pyrimidin-2-amine] | 0.0585 | IC50 (human ALK2): 0.0177 µM
CCn1cc(-c2ccnc(Nc3ccc(N4CCN(CC5CC5)CC4)cc3)n2)c(-c2cccnc2)n1 [Example 33, N-(4-(4-(Cyclopropylmethyl)piperazin-1-yl)phenyl)-4-(1-ethyl-3-(pyridin-3-yl)-1H-pyrazol-4-yl)pyrimidin-2-amine] | 0.0078 | IC50 (human ALK2): 0.0061 µM
COCCN1CCN(c2ccc(Nc3nccc(-c4cn(CCOC)nc4-c4cccnc4)n3)cc2)CC1 [Example 37, 4-(1-(2-Methoxyethyl)-3-(pyridin-3-yl)-1H-pyrazol-4-yl)-N-(4-(4-(2-methoxyethyl)-piperazin-1-yl)phenyl)pyrimidin-2-amine] | 0.0313 | IC50 (human ALK2): 0.0104 µM
CCn1cc(-c2ccnc(Nc3ccc(N4CCN(C)CC4)cc3)n2)c(-c2cccnc2)n1 [Example 46, 4-(1-Ethyl-3-(pyridin-3-yl)-1H-pyrazol-4-yl)-N-(4-(4-methylpiperazin-1-yl)phenyl)pyrimidin-2-amine] | 0.0188 | IC50 (human ALK2): 0.0255 µM
CC(C)(O)Cn1cc(-c2ccnc(Nc3ccc(C4CCN(C5COC5)CC4)cc3)n2)c(-c2cccnc2)n1 [Example 132] | 0.0249 | 
CCn1cc(-c2ccnc(Nc3ccc(-c4cccnc4)cc3)n2)c(-c2cccnc2)n1 [Example 133, 4-(1-ethyl-3-(pyridin-3-yl)-1H-pyrazol-4-yl)-N-(4-(pyridin-3-yl)phenyl)pyrimidin-2-amine] | 0.0187 | 
CCn1cc(-c2ccnc(Nc3ccc(-c4ccncc4)cc3)n2)c(-c2cccnc2)n1 [Example 134, 4-(1-Ethyl-3-(pyridin-3-yl)-1H-pyrazol-4-yl)-N-(4-(pyridin-4-yl)phenyl)pyrimidin-2-amine] | 0.0218 | 
FC(F)(F)Cn1cc(-c2ccnc(Nc3ccc(N4CCNCC4)cc3)n2)c(-c2cccnc2)n1 [Example 136, N-(4-(piperazin-1-yl)phenyl)-4-(3-(pyridin-3-yl)-1-(2,2,2-trifluoroethyl)-1H-pyrazol-4-yl)pyrimidin-2-amine] | 0.0133 | 
O=C(c1ccc(Nc2nccc(-c3cn(Cc4ccccc4)nc3-c3cccnc3)n2)cc1)N1CCNCC1 [Example 138, (4-((4-(1-Benzyl-3-(pyridin-3-yl)-1H-pyrazol-4-yl)pyrimidin-2-yl)amino)phenyl) (piperazin-1-yl)methanone] | 0.0224 | inhibition at 0.3 µM (human ALK6; ALK6, test compound 300 nM, read-out: Inhibition rate at 300 nM): 83.8%
c1ccc(Cn2cc(-c3ccnc(Nc4ccc(N5CCNCC5)cc4)n3)c(-c3cccnc3)n2)nc1 [Example 140, N-(4-(Piperazin-1-yl)phenyl)-4-(1-(pyridin-2-ylmethyl)-3-(pyridin-3-yl)-1H-pyrazol-4-yl)pyrimidin-2-amine] | 0.0319 | 
c1cncc(Cn2cc(-c3ccnc(Nc4ccc(N5CCNCC5)cc4)n3)c(-c3cccnc3)n2)c1 [Example 141, N-(4-(Piperazin-1-yl)phenyl)-4-(3-(pyr-3-yl)-1-(pyridin-3-ylmethyl)-1H-pyrazol-4-yl)pyrimidin-2-amine] | 0.0552 | 
CCn1cc(-c2ccnc(Nc3ccc(OC4CNC4)cc3)n2)c(-c2cccnc2)n1 [Example 145, N-(4-(Azetidin-3-yloxy)phenyl)-4-(1-ethyl-3-(pyridin-3-yl)-1H-pyrazol-4-yl)pyrimidin-2-amine] | 0.0164 | 
CCn1cc(-c2ccnc(Nc3ccc(OC4CC5CCC(C4)N5)cc3)n2)c(-c2cccnc2)n1 (stereo not drawn) [Example 146, N-(4-((8-Azabicyclo[3.2.1]octan-3-yl)oxy)phenyl)-4-(1-ethyl-3-(pyridin-3-yl)-1H-pyrazol-4-yl)pyrimidin-2-amine] |  | IC50 [1]: 0.0135 µM
CCn1cc(-c2ccnc(Nc3ccc(N4CCC(N)CC4)cc3)n2)c(-c2cccnc2)n1 [Example 147, N-(4-(4-Aminopiperidin-1-yl)phenyl)-4-(1-ethyl-3-(pyridin-3-yl)-1H-pyrazol-4-yl)pyrimidin-2-amine] | 0.0141 | 
CCn1cc(-c2ccnc(Nc3cc(F)c(N4CCNCC4)c(F)c3)n2)c(-c2cccnc2)n1 [Example 153, N-(3,5-Difluoro-4-(piperazin-1-yl)phenyl)-4-(1-ethyl-3-(pyridin-3-yl)-1H-pyrazol-4-yl)pyrimidin-2-amine] | 0.0065 | 

Compound | IC50 [1, 2] [µM] | other results
CCn1cc(-c2ccnc(Nc3ccc(N4CCNCC4)c(C)c3)n2)c(-c2cccnc2)n1 [Example 154, 4-(1-Ethyl-3-(pyridin-3-yl)-1H-pyrazol-4-yl)-N-(3-methyl-4-(piperazin-1-yl)phenyl)pyrimidin-2-amine] | 0.007 | 
N#Cc1cccc(Cn2cc(-c3ccnc(Nc4ccc(N5CCNCC5)cc4)n3)c(-c3cccnc3)n2)c1 [Example 156, 3-((4-(2-((4-(Piperazin-1-yl)phenyl)amino)pyrimidin-4-yl)-3-(pyridin-3-yl)-1H-pyrazol-1-yl)methyl)benzonitrile] | 0.0243 | IC50 (human ALK2): 0.0061 µM
N#Cc1ccccc1Cn1cc(-c2ccnc(Nc3ccc(N4CCNCC4)cc3)n2)c(-c2cccnc2)n1 [Example 157, 2-((4-(2-((4-(Piperazin-1-yl)phenyl)amino)pyrimidin-4-yl)-3-(pyridin-3-yl)-1H-pyrazol-1-yl)methyl)benzonitrile] | 0.0197 | 
CCn1cc(-c2ccnc(Nc3cccc(N4CCNCC4)c3)n2)c(-c2cccnc2)n1 [Example 158, 4-(1-Ethyl-3-(pyridin-3-yl)-1H-pyrazol-4-yl)-N-(3-(piperazin-1-yl)phenyl)pyrimidin-2-amine] | 0.0185 | 
CCn1cc(-c2ccnc(Nc3ccc(CCN4CCNCC4)cc3)n2)c(-c2cccnc2)n1 [Example 159, 4-(1-Ethyl-3-(pyridin-3-yl)-1H-pyrazol-4-yl)-N-(4-(2-(piperazin-1-yl)ethyl)phenyl)-pyrimidin-2-amine] | 0.0152 | 
CCn1cc(-c2ccnc(Nc3ccc(N4CCC[C@H](N)C4)cc3)n2)c(-c2cccnc2)n1 [Example 160, (S)-N-(4-(3-Aminopiperidin-1-yl)phenyl)-4-(1-ethyl-3-(pyridin-3-yl)-1H-pyrazol-4-yl)pyrimidin-2-amine] | 0.0158 | 
CCn1cc(-c2ccnc(Nc3ccc(N4CCC[C@@H](N)C4)cc3)n2)c(-c2cccnc2)n1 [Example 161, (R)-N-(4-(3-Aminopiperidin-1-yl)phenyl)-4-(1-ethyl-3-(pyridin-3-yl)-1H-pyrazol-4-yl)pyrimidin-2-amine] | 0.0126 | 
CCn1cc(-c2ccnc(Nc3ccc(OC4CCNCC4F)cc3)n2)c(-c2cccnc2)n1 (stereo not drawn) [Example 164, 4-(1-Ethyl-3-(pyridin-3-yl)-1H-pyrazol-4-yl)-N-(4-((3-fluoropiperidin-4-yl)oxy)phenyl) pyrimidin-2-amine] | 0.0114 | 
CCn1cc(-c2ccnc(Nc3cccc(OC4CCNCC4)c3)n2)c(-c2cccnc2)n1 [Example 165, 4-(1-Ethyl-3-(pyridin-3-yl)-1H-pyrazol-4-yl)-N-(3-(piperidin-4-yloxy)phenyl) pyrimidin-2-amine] | 0.0226 | IC50 (human ALK2): 0.057 µM
CCn1cc(-c2nc(Nc3ccc(N4CCNCC4)cc3)ncc2F)c(-c2cccnc2)n1 [Example 166, 4-(1-Ethyl-3-(pyridin-3-yl)-1H-pyrazol-4-yl)-5-fluoro-N-(4-(piperazin-1-yl)phenyl)pyrimidin-2-amine] | 0.04 | 
CCn1cc(-c2ccnc(Nc3ccc4c(c3)NCCC4)n2)c(-c2cccnc2)n1 [Example 170, N-(4-(1-Ethyl-3-(pyridin-3-yl)-1H-pyrazol-4-yl)pyrimidin-2-yl)-1,2,3,4-tetrahydroquinolin-7-amine] | 0.0227 | 
CCn1cc(-c2ccnc(Nc3ccc4c(c3)CCN(CC(=O)O)C4)n2)c(-c2cccnc2)n1 [Example 172, 2-(6-((4-(1-ethyl-3-(pyridin-3-yl)-1H-pyrazol-4-yl)pyrimidin-2-yl)amino)-3,4-dihydroisoquinolin-2(1H)-yl)acetic acid] | 0.0383 | 
CCn1cc(-c2ccnc(Nc3ccc(N4CCN(CC(=O)O)CC4)cc3)n2)c(-c2cccnc2)n1 [Example 173, 2-(4-(4-((4-(1-Ethyl-3-(pyridin-3-yl)-1H-pyrazol-4-yl)pyrimidin-2-yl)amino)phenyl)piperazin-1-yl)acetic acid] | 0.0476 | 
CCn1cc(-c2ccnc(Nc3ccc(N4CCN(C(=O)CO)CC4)cc3)n2)c(-c2cccnc2)n1 [Example 174, 1-(4-(4-((4-(1-ethyl-3-(pyridin-3-yl)-1H-pyrazol-4-yl)pyrimidin-2-yl)amino)phenyl)piperazin-1-yl)-2-hydroxyethan-1-one] | 0.037 | 
CCn1cc(-c2ccnc(Nc3ccc(N4CCC(C(C)(C)N)CC4)cc3)n2)c(-c2cccnc2)n1 [Example 178] | 0.0148 | 
CCn1cc(-c2ccnc(Nc3ccc(-n4cnc(N5CCN(C)CC5)n4)cc3)n2)c(-c2cccnc2)n1 [Example 180, 4-(1-ethyl-3-(pyridin-3-yl)-1H-pyrazol-4-yl)-N-(4-(3-(4-methylpiperazin-1-yl)-1H-1,2,4-triazol-1-yl)phenyl)pyrimidin-2-amine] | 0.0091 | 
